Laboratory results as given in paper PMC3437750 (Journal of medicinal chemistry, 2011).

Columns and labels:
[1] = molecular target: T1, purified human PMM2 (Homo sapiens, UniProt O15305); assay: PMM2 in vitro enzymatic concentration-response assay; type: biochemical; conditions: tested up to 20 µM where stated
T1 sequence (O15305 1-246): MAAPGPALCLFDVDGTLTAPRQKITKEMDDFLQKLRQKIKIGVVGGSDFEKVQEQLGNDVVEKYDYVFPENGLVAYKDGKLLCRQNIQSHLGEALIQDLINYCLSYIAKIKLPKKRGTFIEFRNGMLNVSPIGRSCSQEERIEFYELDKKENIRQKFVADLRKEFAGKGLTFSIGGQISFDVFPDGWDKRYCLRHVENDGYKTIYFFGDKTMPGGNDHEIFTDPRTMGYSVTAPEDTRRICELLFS

[2] = Parallel Artificial Membrane Permeation Assay; type: in vitro ADME; conditions: assessed in vitro, PAMPA
[3] = Glutathione conjugation assay; conditions: 10 µM, 2 mg/mL rat hepatic S9, 10 mM glutathione, 37°C, 2 hours
[4] = molecular target: T2, purified human PMI (Homo sapiens, UniProt P34949); type: biochemical
T2 sequence (P34949 1-423): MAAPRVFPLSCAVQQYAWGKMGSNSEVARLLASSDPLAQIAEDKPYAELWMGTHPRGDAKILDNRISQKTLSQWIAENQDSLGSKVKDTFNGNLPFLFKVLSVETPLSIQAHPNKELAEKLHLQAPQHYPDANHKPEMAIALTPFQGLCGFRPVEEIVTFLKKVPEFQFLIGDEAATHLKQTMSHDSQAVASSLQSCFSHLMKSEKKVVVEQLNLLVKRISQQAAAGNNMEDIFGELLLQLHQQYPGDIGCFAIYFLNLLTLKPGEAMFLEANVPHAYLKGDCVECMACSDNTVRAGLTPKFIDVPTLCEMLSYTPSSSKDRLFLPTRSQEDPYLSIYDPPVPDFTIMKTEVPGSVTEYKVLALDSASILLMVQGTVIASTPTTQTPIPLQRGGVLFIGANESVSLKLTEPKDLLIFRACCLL

[5] = test system: Hela cells

| Structure (SMILES) | PMM2 inhibition (in words) [1] | GSH adduct formation by LCMS (in words) [3] | further results |
| --- | --- | --- | --- |
| O=c1c2ccccc2sn1-c1ccccc1 [Compound 1, 2-Phenyl-2-hydrobenzo[d]isothiazol-3-one] | selective for PMI over PMM2 |  |  |
| Cc1ccc(C)c(-n2sc3ccccc3c2=O)c1 [Compound 16, 2-(2,5-dimethylphenyl) benzo[d]isothiazol-3(2H)-one] | a measurable inhibition of PMM2 was observed |  |  |
| O=c1c2cc(F)ccc2sn1-c1ccccc1 [Compound 19, 5-Fluoro-2-phenylbenzo[d]isothiazol-3(2H)-one] |  | no GSH adducts were observed | predicted permeability (in words) [2]: moderately permeable |
| O=c1c2ccccc2sn1-c1ccc(C(F)(F)F)cc1 [Compound 6, 2-[4-(Trifluoromethyl)phenyl]-2-hydrobenzo[d]isothiazol-3-one] | inactive against both enzymes |  | PMI inhibition (in words) [4]: inactive against both enzymes; cellular toxicity (35S-Met/Cys incorporation, in words) [5]: exhibits cellular toxicity |
| O=C(O)Cc1ccccc1Nc1c(Cl)cccc1Cl [diclofenac, reference compound] |  | showed the expected conjugate masses |  |
